“Also recorded” adds a separate entry of the source.
How the values were obtained:
MDA-MB-231 cells [1] = test: CellTiter-Glo relative growth (luminescent ATP); type: cell-based; conditions: for EC50 for growth inhibition, compared between compounds: ATP Celltiter Glo proliferation assay, n=3
Method: HEK 293T, MDA-MB-231, MDA-MB-468, Hs578T and BT-549 cells (American Type Culture Collection) were cultured at 37° C. with 5% CO2 in Dulbecco's modified Eagle's medium containing (DMEM) (Gibco) supplemented with 5% FBS (HyClone), 100 units/ml penicillin, […] streptomycin (Gibco), non-essential amino acids (Gibco) and 2 mM 1-glutamine (Gibco). Doxorubicin (Selleckchem), cisplatin (Sigma) or olaparib (Selleckchem) were dissolved in DMSO or DMF (cisplatin). […] Pure NO2-OA was diluted in DMSO and added to cells after solvation in assay media. Relative cell numbers were compared by measuring the luminescent signal generated by ATP using the CellTiter-Glo (Promega) assay. Cells were plated in a 96-well plate at 5,000 (MDA-MB-231) or 6,600 (BT549 or Hs578T) cells per well.
Data represent the mean±SEM from 3 independent experiments unless otherwise noted. A p value<0.05 was considered statistically significant. Non-linear curves were generated in GraphPad Prism 7.0 (GraphPad Software, La Jolla, CA, USA) for statistical analysis. EC50 values and standard error were calculated from three independent experiments utilizing a non-linear dose response variable slope model. Significance was tested by one-way ANOVA for multiple groups with Tukey posttest or by t-test when groups were less than three. RAD51 foci number was analyzed with ImageJ. Nuclear boundaries were individually identified in more than 50 cells per treatment group in three independent experiments.
The growth of BT-549 cells was not affected. […] MDA-MB-231 cells were plated in a 96 well plate and treated with talazoparib (0.01-75 μM) plus OA-NO2 or NDA-NO2 (0.2-12 μM) daily for 3 days. Growth inhibition (relative cell numbers) of MDA-MB-231 cells was determined by luminescent detection of ATP (CellTiter-Glo) (FIG. 1K).

MDA-MB 231 TNBC cells = test: Metabolism in MDA-MB-231 cells by HPLC-MSMS; type: in vitro ADME; conditions: for omega hydroxylation and carboxylation: 10 uM; for omega hydroxylation and carboxylation / cysteine adduct formation: cell media and cell homogenate
Method: FIG. 18. […] Growth inhibition was assessed using the ATP Celltiter Glo proliferation assay and compounds were used at different concentration to determine their EC50. CP-1 had the lowest EC50 followed by 7-NDA and 8-NDA. […] The different metabolic pathways of 7-NDA and 8-NDA have been characterized in MDA-MB-231 TNBC cells. MDA-MB 231 TNBC cells incorporate and metabolize 7-NDA and 8-NDA through beta oxidation (FIG. 19). Inactivation of the active 7-NDA and 8-NDA nitroalkene group is achieved through reduction to a nitroalkane (FIG. 20).
FIG. 19. […] Dinor 7-NDA corresponds to one beta-oxidation cycle while tetranor corresponds to two beta oxidation cycles. […] Formation of both Dinor and Tetranor 8-NDA are shown. Chromatograms correspond to the detection by HPLC-MSMS of the different compounds in negative ion mode using MRMs on a triple quadrupole mass spectrometer.
FIG. 20. […] Chromatograms correspond to the detection by HPLC-MSMS of the different compounds in negative ion mode using MRMs on a triple quadrupole mass spectrometer.
FIG. 21. […] Chromatograms correspond to the detection by HPLC-MSMS of the different using specific MRM transitions on a triple quadrupole mass spectrometer.
FIG. 22. […] Dicarboxylic acids of both 7-NDA and 8-NDA have been detected in cell media and cell homogenate from cell treated with 10 uM 7-NDA or 8-NDA. Chromatograms correspond to the detection by HPLC-MSMS of the different using specific MRM transitions on a triple quadrupole mass spectrometer.

[2] = tested on: NF-κB transcriptional activity; test: NF-κB luciferase reporter; type: cell-based; conditions: MDA-MB-231 and MDA-MB-468 cells, 5 μM 2 hr then TNFα 20 ng/mL 4 hr
Method: Luciferase-chemiluminescence-based analysis of NF-κB transcriptional activity was performed. MDA-MB-231 and MDA-MB-468 cells (˜70% confluence) in 12-well plates were transiently transfected with a NF-κB-luciferase reporter plasmid (Stratagene, La Jolla, CA) with Lipofectamine 3000. […] Each transfection was performed in triplicate. Luciferase activity was measured using the Dual-luciferase assay kit (Promega). Relative light units (RLU) were measured using a 96-well plate luminometer, according to the manufacturer's instructions (Victor II, PerkinElmer Life Sciences). Protein concentration was determined using the BCA Assay (Thermo Fisher Scientific). Data represents the ratio of treated samples to controls in the context of mean RLU/protein content, +/−SD. Three individual experiments were done, and statistical significance was determined by Kruskal-Wallis test followed by Dunn's post-test with Bonferroni corrections for multiple comparisons.

IKKβ = test: TNFα-induced IKKβ phosphorylation, IκBα phosphorylation and degradation; type: cell-based
Method: All studies used two TNBC cell lines, MDA-MB-231 and MDA-MB-468. […] For IκBα degradation, cells were treated as described above and stimulated with 20 ng/mL TNFα for 10 min.
(§1) Western blotting was performed. 20-60 μg of total lysates per lane were loaded on 7%, 10%, or 12% SDS-PAGE and transferred onto nitrocellulose or polyvinylidene difluoride membranes (Bio-Rad). The membranes were probed with primary antibodies against caspase-3, multi-drug resistance protein-1 (MRP1), poly [ADP ribose] polymerase-1 (PARP-1), ubiquitin, RelA; cyclin D1, p21, caspase-9, MRP4, IKKβ, pIKKβ, IκBα, or pIκBα (Cell Signaling); caspase-8 (R&D Systems). Samples were normalized to β-actin (Sigma-Aldrich) or GAPDH (Trevigen).

MDA-MB-468 cells = test: Matrigel cell invasion assay; type: cell-based; conditions: NO2-OA/NO2-SA 5 μM, JSH-23 10 μM, TNFα 20 ng/mL, 24 hr
Method: Cells were then suspended in migration media and placed in the top well of invasion chambers (EMD Millipore). Chemoattractant (5% FBS) was placed in the lower chamber for 24 hr at 37° C. to attract invasive cells. Cells were then harvested and invasion rates were determined according to manufacturer's protocol. Three individual experiments were done, and statistical comparison among treatments was determined by one-way analysis of variance followed by Tukey post-test.

[3] = tested on: RelA in MDA-MB-231 and MDA-MB-468 cells; test: RelA protein level and polyubiquitination; type: cell-based; conditions: 5 μM, 24 hr
Method: Lysates were clarified by centrifugation at 14,000×g for 10 min. Protein lysates (1 mg) were incubated with anti-RelA antibody and Protein G/A conjugated agarose beads (EMD Millipore, Bedford, MA) at 4° C., overnight. Immunoprecipitation fraction were obtained by centrifugation at 14,000×g for 1 min at RT and washed with lysis buffer three times. The immunoprecipitated RelA was resolved by 8% SDSPAGE gel, and transferred to nitrocellulose membrane (Bio-Rad) for immunoblotting probed with an anti-ubiquitin antibody (Santa Cruz Biotechnology). The blot was then stripped and probed with an anti-RelA antibody to assess amounts of RelA protein pull-down.
as §1

MDA-MB-231 cells [4] = test: Cell growth assay (FluoReporter dsDNA); type: cell-based; conditions: TNBC cell lines MDA-MB-231 and MDA-MB-468, 48 hr
Method: Cells were plated at a cell density of 5000 cells per well in 96-well plates. […] Cells were counted using the FluoReporter dsDNA quantitation kit (Molecular Probes) according to the manufacturer's instructions. Fluorescence was measured using a SpectraMax M2 plate reader (Molecular Devices). […] Three individual experiments were done (n=5/each), and statistical comparison between two cell lines across doses was determined by two-way analysis of variance followed by Tukey post-test.

[5] = tested on: MDA-MB-231 and MDA-MB-468 cells; test: FACS cell cycle analysis; type: cell-based; conditions: MCF-10A, MDA-MB-231 and MDA-MB-468 cells, 24 hr
Method: Adherent and nonadherent cells were collected, centrifuged at 2000×rpm for 10 min, washed with ice-cold phosphate-buffered saline, fixed with cold 70% ethanol at 4° C. for 30 mins, and stained with 50 μg/mL propidium iodide (Sigma-Aldrich). FACS analysis was performed at the University of Pittsburgh Department of Immunology Unified Flow Core Facility. Three individual experiments were done, and statistical comparisons among phases (G0/G1, S, and G2/M) were determined by one-way analysis of variance followed by Tukey post-test.

[6] = tested on: homologous recombination (DR-GFP, U2OS cells); test: DR-GFP HR reporter assay in U2OS cells; type: cell-based; conditions: FIG. 16B
Method: Measurements of NHEJ, HR, Alt-EJ and SSA assays were performed as previously described. HR activity was measured by counting GFP-positive cells by flow cytometry at the MWRI flow cytometry core using a BD LSRII (BD Biosciences). RAD51 overexpressing cells were generated by stable transfection of pLVX RAD51 IRES Neo and selection with geneticin (Invitrogen).
U2OS cells were prepared as above, but 5 h following compound treatment, cells were transferred into the Incucyte Zoom (Essen) live-cell imaging automated fluorescence microscope at 37° C. with 5% CO2. Cell confluence and green object count per mm2 were determined using Incucyte Zoom software. Green object count per field was normalized to cell confluency to correct for NO2—OA-induced effects on cell proliferation.
NO2-OA-dependent effects on HR DNA repair were further investigated by utilizing a DRGFP reporter assay. This analysis quantifies intracellular recombination of an integrated cDNA cassette of two tandem non-fluorescent GFP constructs following introduction of an I-SceI cleavage to the system by measuring the fluorescent GFP protein that is produced following successful recombination. […] A novel strategy was used to measure the kinetics of changes in HR in live cells by using automated fluorescence microscopy to track the emergence of GFP positive cells over time in monolayers, as opposed to making static measurements of detached cells using flow cytometry. […] This was indicated by an absence of changes in the number of GFP positive cells following I-SceI cleavage after 48 h by flow cytometric analysis or over 68 h by live-cell fluorescence microscopy (FIGS. 2C, 2D).

[7] = tested on: human high grade serous ovarian cancer cells; test: Cell growth/viability by luminescent ATP with PARP inhibitors; type: cell-based; conditions: with Olaparib or Talazoparib
Method: Cell growth/viability is determined from luminescent detection of cell ATP concentration.

Q: How did the “EC50 for growth inhibition, compared between compounds” value (MDA-MB-231 cells [1]) turn out when `CCCCCCCCCCC/C(=C\CCCCCC(=O)O)[N+](=O)[O-]` [8-NDA, 8-NO2-nonadec-7-enoic acid] was run?
A: more sensitive to 7-NDA and 8-NDA when compared to OA-NO2

Q: And the “formation of active nitroalkene beta-oxidation metabolites (dinor, tetranor)” value (MDA-MB 231 TNBC cells)?
A: result in the active (structures having the reactive nitroalkene moiety) beta-oxidation products

Q: What about the “omega hydroxylation and carboxylation” value (MDA-MB 231 TNBC cells) of the same compound?
A: omega hydroxylation and carboxylation

Q: And the cysteine adduct formation (MDA-MB 231 TNBC cells)?
A: form cysteine adducts that are detected in cell media and cell homogenate

Q: `CCCCCCCCC=CCCCCCCCC(=O)O` [OA, octadec-9-enoic acid, reference compound] was tested. Which “EC50 for growth inhibition, compared between compounds” value (MDA-MB-231 cells [1]) did it give?
A: did not induce any growth inhibition

Q: What about the “NF-κB-dependent transcription of luciferase” value [2] of the same compound?
A: no effect

Q: For `CCCCCCCCCCC/C=C(\CCCCCC(=O)O)[N+](=O)[O-]` [7-NDA, 7-NO2-nonadec-7-enoic acid], which “EC50 for growth inhibition, compared between compounds” value (MDA-MB-231 cells [1]) is on record?
A: more sensitive to 7-NDA and 8-NDA when compared to OA-NO2

Q: And the “IC50 compared with NO2-OA” value (MDA-MB-231 cells [1]; FIG. 12)?
A: lower IC50 compared NO2-OA

Q: And the “Combination index (CI), Chou-Talalay” value (MDA-MB-231 cells [1]; with talazoparib (0.01-75 μM), 0.2-12 μM, daily 3 days, CI<1 is synergistic)?
A: better combination indices; also recorded: better CI values compared to OA-NO2

Q: And the “formation of active nitroalkene beta-oxidation metabolites (dinor, tetranor)” value (MDA-MB 231 TNBC cells)?
A: does not result in the formation of active, nitroalkene containing metabolites

Q: And the “omega hydroxylation and carboxylation” value (MDA-MB 231 TNBC cells)?
A: omega hydroxylation and carboxylation

Q: What about the cysteine adduct formation (MDA-MB 231 TNBC cells) of the same compound?
A: form cysteine adducts that are detected in cell media and cell homogenate

Q: How did the “TNFα-induced IKKβ phosphorylation” value (IKKβ; NO2-OA 5 μM or BAY11-7082 10 μM 2 hr, TNFα 20 ng/mL 5 min) turn out when `Cc1ccc(S(=O)(=O)/C=C/C#N)cc1` [BAY11-7082, 3[(4-methylphenyl)sulfonyl]-(2E)-propenenitrile, reference compound] was run?
A: diminished

Q: What about the “degradation of IκBα following TNFα stimulation” value (IKKβ; TNFα 20 ng/mL, 10 min) of the same compound?
A: inhibited the degradation of IκBβ

Q: What about the IκBα phosphorylation (IKKβ; with proteasome inhibitor MG-132 10 μM) of the same compound?
A: decreased IκBβ phosphorylation

Q: With `Cc1ccc(NCCCc2ccccc2)c(N)c1` [JSH-23, 4-Methyl-N1-(3-phenyl-propyl)-benzene-1,2-diamine] as the compound, how does the TNFα-induced invasion (MDA-MB-468 cells) read?
A: inhibition of MDA-MB-468 cell invasion

Q: With `CCCCCCCCC(CCCCCCCCC(=O)O)[N+](=O)[O-]` (stereo not drawn) [NO2—SA, 10-nitro-octadecanoic acid, reference compound] as the compound, how does the RelA protein abundance [3] read?
A: no effect

Q: And the “NF-κB-dependent transcription of luciferase” value [2]?
A: no effect

Q: And the TNBC cell growth (MDA-MB-231 cells [4])?
A: did not affect TNBC cell growth

Q: And the “cell cycle populations and regulatory proteins” value [5]?
A: did not affect cell cycle populations

Q: And the TNFα-induced invasion (MDA-MB-468 cells)?
A: marginal effects

Q: With “methyl-ethyl-4-nitro-oct-4-enedioate [CP-1]” as the compound, how does the “inhibition of homologous recombination” value [6] read?
A: inhibition of homologous recombination

Q: And the “concentration of PARP inhibitor needed for 50% tumor cell killing” value [7]?
A: lowers the concentration of the PARP inhibitors

Q: And the “EC50 for growth inhibition, compared between compounds” value (MDA-MB-231 cells [1])?
A: lower EC50 than OA-NO2; also recorded: lowest EC50
